“And” between values parts separate entries of the source, which are not always exact repeats. Identical values can stand only once.
Legend:
pKa of acid (D) = assay type: physicochemical; conditions: free acid (D)
Protocol: An aqueous solution composed of KMnO4 (238 mmol, 37.6 g), NaOH (238 mmol, 9.52 g) in 200 ml of distilled H2O was introduced in a 3-necked glass round-bottomed flask equipped with a magnetic stirrer, a dropping funnel, a thermometer and a tap water refrigerating column. The flask was heated to 80° C. with vigorous stirring and then 238 mmol; 50 g of product obtained from step 1a was slowly dropped into the basic oxidizing solution. Immediate exothermic release (+15° C.) was observed together with formation of MnO2 precipitate. After completion of the addition, solution was further stirred at 80° C. for 40 min. Crude reaction mixture was then cooled to room temperature, filtered, acidified to pH=1 with concentrated HCl (37% w/w) and extracted several times with CH2Cl2. The organic layer was dried over MgSO4, filtered and then the CH2Cl2 is evaporated.

[1] = Thermogravimetric analysis (TGA) in air; assay type: physicochemical; conditions: ammonium salt
Protocol: (§1) An organic solution composed of (D) (127 mmol; 30.6 g) and 200 ml of CH2Cl2 was introduced in a 2-necked glass round-bottomed flask equipped with a magnetic stirrer, a tap water refrigerating column and a bubbling tube. The mixture was cooled to 0° C. with vigorous stirring and a large excess of gaseous NH3 was bubbled through the organic mixture. Bubbling of NH3 (g) was pursued until completion of the precipitation of the ammonium salt. Crude mixture was filtered; solid was dried in a vacuum oven at 40° C. under reduced pressure (20 mmHg) for 2 hours. A flaky white solid is obtained. Isolated yield of compound (E) (VIIa, with Xa being NH4)=100%. […] FIG. 2 depicts the ^19F-NMR spectrum of compound (E).
Perfluorinated ester (G) was hydrolyzed in water at 0° C., yielding corresponding acid with quantitative yield. Evolved HF was neutralized with 1.5 mol eq. of KF, yielding solid KHF2, which was separated by filtration. After removal of solvent, the free acid (b.p.=160° C.) and CF3COOH (b.p.=72° C.) were separated by fractional distillation. Gaseous NH3 was then bubbled in a CH2Cl2 (200 ml) solution of the acid; ammonium salt (H) (formula Va, with Xa═NH4) was then recovered with a yield of 75% moles (with respect to alcohol intermediate (B)). […] FIG. 3 depicts the ^19F-NMR spectrum recorded on compound (H).
Acid (XIII, Xa═H) was solubilised in CH2Cl2 (200 ml); gaseous NH3 was then bubbled in said solution; ammonium salt (XIII, Xa═NH4) was then recovered with a yield of 75% moles (with respect to alcohol intermediate (L)). […] FIG. 7 depicts the ^19F-NMR spectrum recorded on ammonium salt (XIII, Xa═NH4).

[2] = Urine levels and urinary recovery after single oral administration; assay type: in vivo, male Wistar rats
Protocol: (§2) Compound Va and VIIa (Xa═NH4) were administered by single oral route (gavage) three male Wistar (SPF-bred) rats at dose levels of about 70 μmol/kg of dry ammonium salt, corresponding to the 21.2 mg/kg for compound Va and 19.9 mg/kg for compound VIIa. Blood sampling occurred 15 minutes before administration, at 4, 8, 12, 24, 72 and 168 hours after administration.
(§3) Compound XIII was dosed by single oral administration to 3 male Wistar rats at the dose of 73 umol/kg corresponding to 26.06 mg/kg. Blood sampling occurred at 15 minutes before administration, at 4, 8, 12, 24, 72 and 168 hours after administration. Urine samples were obtained at time intervals 0-12, 12-24, 24-72, 72-96, 96-168 hours after dosing. Plasma and urine concentration of XIII were determined by a validated analytical method.

[3] = Plasma levels and pharmacokinetic parameters after single oral (gavage) administration; assay type: in vivo, male Wistar (SPF-bred) rats; conditions: for elimination from blood compared with APFO: after single oral administration, C/Cmax versus time (FIG. 5); for time of maximal plasma concentration (tmax): single oral, Va, VIIa about 70 μmol/kg, XIII 73 umol/kg
Protocol: as §2, §3
Results of plasma concentrations for compound VIIa (Xa═NH4), Va (Xa═NH4), XIII (Xa═NH4) and APFO as a function of time are sketched in FIG. 5. This graph depicts ratio C/Cmax for compound Va (Xa═NH4) (●) compound VIIa (Xa═NH4) (◯), for compound XIII (Xa═NH4) (□) and APFO (▴), with C=instantaneous plasma concentration and Cmax=maximum plasma concentration, as a function of time (in hours).

Oral acute toxicity = assay type: in vivo
Protocol: as §1

[4] = plasma, male rats, single oral gavage, about 70 μmol/kg, individual values of the three animals, listed as VIIa (Xa = NH4)

Row | Compound | pKa (pKa of acid (D)) | TGA temperature at weight decrease of 10% [1] | TGA temperature at weight decrease of 50% [1] | mean urinary recovery in 168 hours after treatment ([2]; 3 male Wistar rats, single oral, 73 umol/kg (26.06 mg/kg)) | elimination from blood compared with APFO [3] | time of maximal plasma concentration (tmax) ([3]; male Wistar rats) | LD50 (Oral acute toxicity) | urinary recovery at 168 hours after treatment ([2]; rats, single oral administration) | urinary half lives ([2]; rats, single oral administration, individual values) | tmax ([3]; plasma, male rats, single oral gavage, about 70 μmol/kg, individual values of the three animals) | AUC0-t [3, 4] | AUCinf. [3, 4] | Cmax [3, 4] | t1/2, z [3, 4] | reliable plasma half life ([3]; single oral gavage, about 70 μmol/kg, male Wistar rats)
1 | O=C(O)C1(F)OC(F)(F)OC1OC(F)(F)F (stereo not shown) [(D)] | 2.8 |  |  |  |  |  |  |  |  |  |  |  |  |  | 
2 | N.O=C(O)C(F)(F)OC1(F)OC(F)(F)OC1(F)OC(F)(F)F (stereo not shown) [Compound XIII] |  | 159 °C | 191 °C | around 82% | significantly faster elimination | 4 h |  |  |  |  |  |  |  |  | 
3 | N.O=C(O)C1(F)OC(F)(F)OC1OC(F)(F)F (stereo not shown) [Compound VIIa] |  | 148 °C | 182 °C |  | significantly faster elimination | 4 h | exceed 2000 mg/kg | 97-107% | 9 h and 13 h and 10 h | 4, 4, 4 h | 135.608 µg·h/mL and 47.07 µg·h/mL and 114.562 µg·h/mL | 47.137 µg·h/mL and 115.916 µg·h/mL and 137.788 µg·h/mL | 11258 ng/mL and 14767 ng/mL and 18878 ng/mL | 4.8 h and 8.0 h and 8.9 h | 8.0 to 8.9 h
